The target in the assay is T1, β-lactamase TEM-1 (Escherichia coli, UniProt P62593).
T1 construct: made in house; host or cells: cell-free in vitro translation as described by Zubay (microbial system)
Put plainly: "resistance to clavulanic acid" beta-lactamase activity test with nitrocephine on in vitro translated enzyme. The class given is biochemical. As to conditions: sample 1 (100% germs resistant to antibiotics only, 0% double resistance); 1 μl clavulanic acid, 3 minutes at 25° C., then nitrocephine; 486 nm. On the procedure:
10 μl of culture at DO600.2.3 were centrifuged and each pellet was resuspended into 12 μl of cellular lysis buffer (10 mM Tris HCl pH 7.5, 1 mM EDTA, 50 μg/ml proteinase K) and incubated 15 minutes at 55° C. then 15 minutes at 80° C. 9 μl of each of these lysates was added to a PCR amplification mixture that permitted amplification of the gene conferring monoresistance and of the gene conferring polyresistance, as well as of the sequences permitting their in vitro expression. 5 μl of each PCR amplification were used to carry out an in vitro transcription as described by Gurevich et al. (Gurevich V. A., Pokrovskaya I. D., Obukhova T. A. and Zozulya S., 1991, Preparative in vitro mRNA synthesis using SP6 and T7 polymerases, Anal. Biochem., 195, 207-213) 10 μl of each transcription was used to translate in vitro the proteins as described by Zubay (Zubay G., 1973, In vitro synthesis of protein in microbial systems, Ann. Rev. Genet., 7, 267-287) to a final volume of 100 μl
Two types of activity tests were carried out: • A measurement of the “total” beta-lactamase activity by using as substrate a chromogenic antibiotic: nitrocephine. […] The reaction was followed by monitoring absorbance changes at 486 nm. • A measurement of the “resistance to clavulanic acid” activity by using as substrate a chromogenic antibiotic: nitrocephine and a given concentration of clavulanic acid. […]

T1 sequence (P62593 24-286 limits assumed): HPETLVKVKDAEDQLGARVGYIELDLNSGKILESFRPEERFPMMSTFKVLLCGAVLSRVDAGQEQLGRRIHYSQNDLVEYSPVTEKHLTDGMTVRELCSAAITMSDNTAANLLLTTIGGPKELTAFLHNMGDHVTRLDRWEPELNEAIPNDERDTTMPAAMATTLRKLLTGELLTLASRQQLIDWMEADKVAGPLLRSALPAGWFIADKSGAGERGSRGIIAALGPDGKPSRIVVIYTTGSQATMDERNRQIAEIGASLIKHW

Consider `O=C(O)[C@H]1/C(=C/CO)O[C@@H]2CC(=O)N21` [clavulanic acid], for which the “beta-lactamase activity detected in the presence of clavulanic acid” value is recorded as “no activity is detected”.
